We go through 44 compounds from patent US20160046616A1, “NRF2 SMALL MOLECULE INHIBITORS FOR CANCER THERAPY” (THE JOHNS HOPKINS UNIVERSITY, priority 2013, published 2016).

What all share (assay type): cell-based
The test system of assay [1] is H838 NRF2-ARE-Fluc stable cell line. The experiment in a line: H838 Nrf2 assay: NRF2-ARE firefly luciferase reporter gene assay. Particulars: Homo sapiens, NCI-H838, read-out: Potency of inhibition, H838. From the text:
H838 is a NSCLC cell line with LOF Keap1 activity and constitutive translocation of NRF2 into the nucleus. A firefly luciferase reporter construct driven by a minimal promoter of NRF2-specific ARE is stably expressed in the H838 cells. This cell line was used as a confirmation assay to make sure hits identified from primary screening and that passed counterscreen assays worked in different cell types with a constitutively active NRF2 pathway (deficiency in Keap1).
This assay was very similar to the primary assay except that the cell line was changed. […] The final concentration of DMSO was maintained at 0.46%. Control compounds Budesonide and Staurosporine were both added at a concentration of 2 mM and Budesonide was also added as a 1:10 titration, starting at 200 μM, to achieve dose-response. After an 18-24 hour incubation at 37° C., 95% humidity, and 5% CO2, 1 μL of 5× CellTiter-Fluor non-lytic cell viability assay reagent (Promega, Madison Wis.) was added into the each well of the plates. The plates were then incubated for 30 minutes at room temperature before they were read on a ViewLux plate imager (Perkin Elmer, Waltham Mass.) using an excitation wavelength of 405 nm and an emission wavelength of 525 nm.
Representative compounds were assayed to assess the potency of inhibition in an A549 NRF2-ARE-Fluc stable cell line (A549 Nrf2 assay), in an H838 NRF2-ARE-Fluc stable cell line (H838 Nrf2 assay), and in an H1437 NRF2-ARE-Fluc stable cell line (H1437 Nrf2 assay) (see Table 3).

Assay [2] concerns A549 NRF2-ARE-Fluc stable cell line. The experiment in a line: A549 Nrf2 assay: NRF2-ARE firefly luciferase reporter gene assay. Particulars: Homo sapiens, read-out: Potency of inhibition, A549. The essentials: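 A549 cells (Keap1 loss-of-function, constitutive NRF2) stably carrying ARE-driven firefly luciferase; compound treatment 18–24 h at 37 °C, 0.46% DMSO final.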
Assay [3] concerns H1437 NRF2-ARE-Fluc stable cell line. The experiment in a line: H1437 Nrf2 assay: NRF2-ARE firefly luciferase reporter gene assay. Conditions: Homo sapiens, NCI-H1437, H1437 NRF2-ARE-Fluc stable cell line; read-out: Potency of inhibition, H1437. On the technique in general: In a reporter assay the amount or activity of a reporter protein is the signal.

A value given as a limit tells only on which side of the number the result lay.

`O=C(Nc1ccc(S(=O)(=O)N2CCOCC2)cc1)c1ccc(CN2CCc3ccccc3C2)cc1` [Compound 48]: the figures for the IC50 in assay [1], in assay [2] and in assay [3] were > 25 µM, < 5 µM and 5 to 25 µM, respectively.
`Cc1ccc(C(=O)Nc2nc(-c3ccccn3)cs2)cc1S(=O)(=O)N1CCOCC1` [Compound 50]: the IC50 in assay [1] was > 25 µM; in assay [2], < 5 µM; in assay [3], > 25 µM.
As to `COc1ccccc1C(=O)Nc1nc(-c2ccc(S(=O)(=O)N3CCOCC3)cc2)cs1` [Compound 47], the IC50 in assay [1], in assay [2] and in assay [3] was < 5 µM throughout.
For the compound `Cc1ccccc1C(=O)N1CCc2cc(-c3ccnc(NC(=O)Cc4ccccc4)n3)ccc21` [Compound 102], the IC50 in assay [2] is 5 to 25 µM; in assay [3] it was > 25 µM.
Taken in the same sequence, the figures for `Cc1sc(NC(=O)Cc2ccc3c(c2)OCO3)nc1-c1ccc2c(c1)CCN2C(=O)c1ccccc1F` [Compound 115] were < 5 µM and < 5 µM.
In the case of `Cc1ccccc1C(=O)N1CCc2cc(-c3cncc(NC(=O)Cc4ccccc4)n3)ccc21` [Compound 104], the IC50 in assay [2] was < 5 µM; in assay [3], 5 to 25 µM.
Regarding `O=C(Nc1ccc(Cl)c(S(=O)(=O)N2CCOCC2)c1)c1ccc(S(=O)(=O)N2CCCCC2)cc1` [compound 54], the IC50 in assay [2] and in assay [3] was < 5 µM each time.
`CC1(C)CC2CC(C)(CN2S(=O)(=O)c2ccc(C(=O)Nc3ccc(Cl)cc3)cc2)C1` (centres unmarked) [compound 53]: the IC50 was < 5 µM in assay [2] and 5 to 25 µM in assay [3].
In the case of `O=C(Nc1cccc(S(=O)(=O)N2CCOCC2)c1)c1ccc(CN2CCc3ccccc3C2)cc1` [compound 119], the IC50 in assay [2] was 5 to 25 µM; in assay [3], > 25 µM.
As to `Cc1ncccc1C(=O)N1CCc2cc(-c3nc(NC(=O)Cc4ccc5c(c4)OCO5)sc3C)ccc21` [Compound 139], the values for the IC50 in assay [2] and in assay [3] were 5 to 25 µM and < 5 µM, respectively.
On to `Cc1ccccc1S(=O)(=O)N1CCc2cc(-c3nc(NC(=O)Cc4cccc(Cl)c4)sc3C)ccc21` [Compound 125], for which the IC50 in assay [2] was < 5 µM; in assay [3], 5 to 25 µM.
For `O=C(CCc1ccccc1)Nc1ncc(Cc2ccc(C(F)(F)F)cc2)s1` [Compound 74], the IC50 in assay [2] and in assay [3] was > 25 µM throughout.
Consider `CC(C)(C)OC(=O)N1CCN(S(=O)(=O)c2ccc(NC(=O)c3ccc(CN4CCc5ccccc5C4)cc3)cc2)CC1` [compound 144], for which the IC50 in assay [2] and in assay [3] was < 5 µM in each case.
On to `O=C(Nc1ccc(S(=O)(=O)N2CCCC2)cc1)c1ccc(CN2CCc3ccccc3C2)cc1` [compound 145], for which the IC50 was < 5 µM in assay [2] and > 25 µM in assay [3].
Taken in the same sequence, the figures for `CCN(CC)S(=O)(=O)c1cccc(C(=O)Nc2ccc(C#N)cc2)c1` [Compound 32] were < 5 µM and 5 to 25 µM.
Turning to `Cc1ccccc1CC(=O)Nc1nc(-c2ccc3c(c2)CCN3S(=O)(=O)c2ccccc2C)c(C)s1` [Compound 128], the IC50 in assay [2] and in assay [3] was < 5 µM each time.
With `COc1ccc(CC(=O)Nc2nc(-c3ccc4c(c3)CCN4C(=O)c3ccccc3C)c(C)s2)cc1` [Compound 7], the IC50 in assay [2] and in assay [3] was < 5 µM in each case.
For `O=C(Nc1ncc(Cc2ccc(C(F)(F)F)cc2)s1)c1cnc(-c2ccccc2)o1` [Compound 86], the IC50 in assay [2] and in assay [3] was 5 to 25 µM each time.
`CCOC(=O)N1CCN(S(=O)(=O)c2ccc(NC(=O)c3ccc(CN4CCc5ccccc5C4)cc3)cc2)CC1` [Compound 199]: the IC50 in assay [2] and in assay [3] was < 5 µM each time.
`Cc1ccccc1C(=O)N1CCc2cc(-c3nc(NC(=O)CC4CCOCC4)sc3C)ccc21` [Compound 84]: the IC50 in assay [2] and in assay [3] was 5 to 25 µM in each case.
As to `Cc1ccccc1C(=O)N1CCc2cc(-c3nc(NC(=O)Cc4ccc(OCCOCCOCCNC(=O)CCCC[C@@H]5SC[C@@H]6NC(=O)N[C@@H]65)cc4)sc3C)ccc21` [Compound 241], the IC50 in assay [2] was > 25 µM; in assay [3], 5 to 25 µM.
Taken in the same sequence, the figures for `Cc1ccccc1C(=O)N1CCc2cc(-c3nc(NC(=O)CN4CCN(c5ccccc5)CC4)sc3C)ccc21` [Compound 229] were < 5 µM and < 5 µM.
For `O=C(Nc1cccc(Cc2ccccc2)c1)c1ccc(-c2cccc([N+](=O)[O-])c2)o1` [Compound 56], the IC50 in assay [2] and in assay [3] was 5 to 25 µM each time.
Regarding `Cc1onc(-c2ccccc2)c1C(=O)N1CCc2cc(-c3nc(NC(=O)Cc4ccc5c(c4)OCO5)sc3C)ccc21` [Compound 160], the IC50 in assay [2] and in assay [3] was > 25 µM in each case.
Take `Cc1ccccc1C(=O)N1CCc2cc(-c3nc(NC(=O)CN4CCN(C)CC4)sc3C)ccc21` [Compound 72]: the values for the IC50 in assay [2] and in assay [3] were > 25 µM and 5 to 25 µM, respectively.
The like results for `Cc1ccccc1S(=O)(=O)N1CCc2cc(-c3nc(NC(=O)Cc4ccccn4)sc3C)ccc21` [Compound 127] were, in that order, 5 to 25 µM and 5 to 25 µM.
Taken in the same sequence, the figures for `O=C(Nc1ncc(Cc2ccc(C(F)(F)F)cc2)s1)c1cnc(-c2ccccc2)s1` [Compound 99] were 5 to 25 µM and > 25 µM.
Regarding `Cc1ccccc1C(=O)N1CCc2cc(-c3nc(NC(=O)CN4CCNCC4)sc3C)ccc21` [Compound 70, N-(5-methyl-4-(1-(2-methylbenzoyl)indolin-5-yl)thiazol-2-yl)-2-(piperazin-1-yl)acetamide], the IC50 in assay [2] and in assay [3] was > 25 µM throughout.
On to `O=C(Nc1ncc(-c2ccccc2)s1)c1ccc(-c2cccc([N+](=O)[O-])c2)o1` [Compound 82], for which the IC50 is 5 to 25 µM in assay [2] and > 25 µM in assay [3].
Consider `Cc1ccccc1C(=O)N1CCc2cc(-c3cccc(N4CCOCC4)n3)ccc21` [Compound 65], for which the IC50 in assay [2] and in assay [3] was 5 to 25 µM each time.
With `CC1c2ccccc2CCN1Cc1ccc(C(=O)Nc2ccc(S(=O)(=O)N3CCOCC3)cc2)cc1` (centres unmarked) [Compound 230], the IC50 in assay [2] and in assay [3] was < 5 µM throughout.
In the case of `Cc1nccc(Cn2ccc(C(=O)Nc3ncc(Cc4ccc(C(F)(F)F)cc4)s3)n2)n1` [Compound 190], the IC50 in assay [2] and in assay [3] was 5 to 25 µM each time.
For the compound `CCC(=O)N1c2ccc(S(=O)(=O)N3CCN(c4ccc([N+](=O)[O-])cc4)CC3)cc2CC1C` (centres unmarked) [Compound 40], the IC50 in assay [2] and in assay [3] was < 5 µM throughout.
For the compound `Cc1ccccc1C(=O)N1CCc2cc(-c3ccc(NC(=O)Cc4ccccc4)cn3)ccc21` [Compound 101], the IC50 in assay [2] and in assay [3] was 5 to 25 µM throughout.
As to `NC(=O)c1ccc(N2CCN(S(=O)(=O)c3ccccc3)CC2)c([N+](=O)[O-])c1` [Compound 39], the values for the IC50 in assay [2] and in assay [3] were < 5 µM and 5 to 25 µM, respectively.
The like results for `O=C(Nc1ncc(Cc2ccc(C(F)(F)F)cc2)s1)c1ccc(-c2ccc([N+](=O)[O-])cc2)o1` [Compound 22] were, in that order, 5 to 25 µM and 5 to 25 µM.
Take `CCN(CC)S(=O)(=O)c1cccc(NC(=O)CNc2cccc(S(=O)(=O)N3CCOCC3)c2)c1` [Compound 49]: the IC50 was > 25 µM in assay [1], < 5 µM in assay [2] and < 5 µM in assay [3].
With `CCN(CC)S(=O)(=O)c1ccc(NC(=O)c2ccc(CN3CCc4ccccc4C3)cc2)cc1` [compound 153], the IC50 in assay [2] and in assay [3] was < 5 µM throughout.
For the compound `O=C(Cc1ccccc1)Nc1cccc(-c2ccc3[nH]ncc3c2)n1` [Compound 91, N-(6-(1H-indazol-5-yl)pyridin-2-yl)-2-phenylacetamide], the IC50 in assay [2] was 5 to 25 µM; in assay [3] it was > 25 µM.
For the compound `Cc1ccccc1C(=O)N1CCc2cc(-c3nc(NC(=O)CCc4ccccc4)sc3C)ccc21` [Compound 210], the IC50 in assay [2] was < 5 µM; in assay [3] it was 5 to 25 µM.
The like results for `O=C(Nc1nc(Cc2ccccc2)cs1)c1ccc(-c2cccc([N+](=O)[O-])c2)o1` [Compound 85] were, in that order, 5 to 25 µM and > 25 µM.
Taken in the same sequence, the figures for `Nc1ccc(-c2cccc(NC(=O)Cc3ccccc3)n2)cc1` [Compound 80, N-(6-(4-aminophenyl)pyridin-2-yl)-2-phenylacetamide] were > 25 µM and > 25 µM.
The like results for `Cc1ccccc1C(=O)N1CCc2cc(-c3nc(NC(=O)CC4CCCCC4)sc3C)ccc21` [Compound 79] were, in that order, < 5 µM and 5 to 25 µM.
For `Cc1cnc(NC(=O)c2ccc(-c3cccc([N+](=O)[O-])c3)o2)s1` [Compound 67], the IC50 in assay [2] is 5 to 25 µM; in assay [3], > 25 µM.
